Experiments:
blackgrass = assay: Test B pre/postemergence blackgrass; format: in vivo, Alopecurus myosuroides
Method in brief: (§1)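 Herbicidal effect was estimated by eye on a ten-point control scale after plants spent twelve to sixteen days in a greenhouse following soil or foliar treatment. Foliar sprays targeted plants at one to four leaves; all doses were formulated in a non-phytotoxic solvent with surfactant.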

corn = assay: Test B pre/postemergence corn; format: in vivo, Zea mays
Method in brief: as §1

crabgrass = assay: Test B pre/postemergence crabgrass; format: in vivo, Digitaria sanguinalis
Method in brief: as §1

rape = assay: Test B pre/postemergence rape; format: in vivo, Brassica napus
Method in brief: as §1

giant foxtail = assay: Test B pre/postemergence giant foxtail; format: in vivo, Setaria faberii
Method in brief: as §1

soybean = assay: Test B pre/postemergence soybean; format: in vivo, Glycine max
Method in brief: as §1

wheat = assay: Test B pre/postemergence wheat; format: in vivo, Triticum aestivum
Method in brief: as §1

smallflower flatsedge = assay: Test B flood test smallflower flatsedge; format: in vivo, Cyperus difformis
Method in brief: (§2)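 Each value is a visual injury score relative to controls, with 10 meaning complete control and 0 no effect. Evaluation took place twelve to sixteen days after the 2-leaf-stage plants were treated and kept in the greenhouse.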

purple nutsedge = assay: Test B pre/postemergence purple nutsedge; format: in vivo, Cyperus rotundus
Method in brief: as §1

morningglory = assay: Test B pre/postemergence morningglory; format: in vivo, Ipomoea hederacea
Method in brief: as §1

duck salad = assay: Test B flood test duck salad; format: in vivo, Heteranthera limosa
Method in brief: as §2

sugar beet = assay: Test B pre/postemergence sugar beet; format: in vivo, Beta vulgaris
Method in brief: as §1

rice = assay: Test B flood test rice; format: in vivo, Oryza sativa
Method in brief: as §2

velvetleaf = assay: Test B pre/postemergence velvetleaf; format: in vivo, Abutilon theophrasti
Method in brief: as §1

cocklebur = assay: Test B pre/postemergence cocklebur; format: in vivo, Xanthium strumarium
Method in brief: as §1

pigweed = assay: Test B pre/postemergence pigweed; format: in vivo, Amaranthus retroflexus
Method in brief: as §1

[1] = Postemergence, Rate 62 g/ha, scale 0 to 10, 0 is no effect, 10 is complete control
[2] = Postemergence, Rate 250 g/ha, scale 0 to 10, 0 no effect, 10 complete control
[3] = Preemergence, Rate 31 g/ha, visual rating, scale 0 to 10 (0 no effect, 10 complete control)
[4] = Preemergence, Rate 62 g/ha, scale 0 to 10, 0 is no effect, 10 is complete control
[5] = Preemergence, Rate 125 g/ha, scale 0 to 10 (0 no effect, 10 complete control)
[6] = Preemergence, Rate 250 g/ha, scale of 0 to 10 where 0 is no effect and 10 is complete control
[7] = Rate 31 g/ha, Postemergence, scale 0 to 10
[8] = Rate 125 g/ha, Postemergence, scale 0 to 10, 0 no effect, 10 complete control
[9] = Rate 125 g/ha, Postemergence section (flood test species), scale 0 to 10, 0 no effect, 10 complete control
[10] = flood test, listed under Postemergence, Rate 250 g/ha, scale 0 to 10, 0 no effect, 10 complete control
[11] = Rate 500 g/ha, Postemergence section of Table B, 0 to 10 scale (0 no effect, 10 complete control)

COc1ccc(-n2c(=O)on(C(=O)N(c3ccc(F)cc3F)C(C)C)c2=O)c(OC)c1 [Compound 32]
9: Plant response rating, Crabgrass (crabgrass; [6]) | Plant response rating, Giant foxtail (giant foxtail; [6])
6: Plant response rating, Crabgrass (crabgrass; [5]) | Morningglory plant response rating (morningglory; [1]) | Morningglory plant response rating (morningglory; [7])
0: Blackgrass plant response rating (blackgrass; [1]) | Blackgrass plant response rating (blackgrass; [3]) | Blackgrass plant response rating (blackgrass; [7]) | Blackgrass plant response rating (blackgrass; [8]) | Corn plant response rating (corn; [1]) | Corn plant response rating (corn; [2]) | Corn plant response rating (corn; [3]) | Plant response rating, Corn (corn; [4]) | Plant response rating, Corn (corn; [5]) | Plant response rating, Corn (corn; [6]) | Corn plant response rating (corn; [7]) | Corn plant response rating (corn; [8]) | Crabgrass plant response rating (crabgrass; [1]) | Crabgrass plant response rating (crabgrass; [3]) | Crabgrass plant response rating (crabgrass; [7]) | Rape plant response rating (rape; [1]) | Rape plant response rating (rape; [2]) | Rape plant response rating (rape; [3]) | Plant response rating, Rape (rape; [4]) | Plant response rating, Rape (rape; [5]) | Plant response rating, Rape (rape; [6]) | Rape plant response rating (rape; [7]) | Rape plant response rating (rape; [8]) | Giant foxtail plant response rating (giant foxtail; [1]) | Giant foxtail plant response rating (giant foxtail; [2]) | Giant foxtail plant response rating (giant foxtail; [7]) | Giant foxtail plant response rating (giant foxtail; [8]) | Soybean plant response rating (soybean; [3]) | Plant response rating, Soybean (soybean; [4]) | Plant response rating, Soybean (soybean; [5]) | Plant response rating, Soybean (soybean; [6]) | Wheat plant response rating (wheat; [1]) | Wheat plant response rating (wheat; [2]) | Wheat plant response rating (wheat; [3]) | Plant response rating, Wheat (wheat; [4]) | Plant response rating, Wheat (wheat; [5]) | Plant response rating, Wheat (wheat; [6]) | Wheat plant response rating (wheat; [8]) | S. Flatsedge plant response rating (smallflower flatsedge; [1]) | S. Flatsedge plant response rating (smallflower flatsedge; [9]) | Nutsedge plant response rating (purple nutsedge; [1]) | Nutsedge plant response rating (purple nutsedge; [2]) | Nutsedge plant response rating (purple nutsedge; [3]) | Plant response rating, Nutsedge (purple nutsedge; [4]) | Plant response rating, Nutsedge (purple nutsedge; [5]) | Plant response rating, Nutsedge (purple nutsedge; [6]) | Nutsedge plant response rating (purple nutsedge; [7]) | Nutsedge plant response rating (purple nutsedge; [8]) | Morningglory plant response rating (morningglory; [3]) | Plant response rating, Morningglory (morningglory; [4]) | Plant response rating, Morningglory (morningglory; [5]) | Ducksalad plant response rating (duck salad; [1]) | Ducksalad plant response rating (duck salad; [9]) | Ducksalad plant response rating (duck salad; [10]) | Sugarbeets plant response rating (sugar beet; [1]) | Sugarbeets plant response rating (sugar beet; [2]) | Sugarbeets plant response rating (sugar beet; [3]) | Plant response rating, Sugarbeets (sugar beet; [4]) | Plant response rating, Sugarbeets (sugar beet; [5]) | Plant response rating, Sugarbeets (sugar beet; [6]) | Sugarbeets plant response rating (sugar beet; [8]) | Rice plant response rating (rice; [1]) | Rice plant response rating (rice; [9]) | Rice plant response rating (rice; [11]) | Rice plant response rating (rice; [10]) | Velvetleaf plant response rating (velvetleaf; [1]) | Velvetleaf plant response rating (velvetleaf; [2]) | Velvetleaf plant response rating (velvetleaf; [3]) | Plant response rating, Velvetleaf (velvetleaf; [4]) | Plant response rating, Velvetleaf (velvetleaf; [5]) | Plant response rating, Velvetleaf (velvetleaf; [6]) | Velvetleaf plant response rating (velvetleaf; [8]) | Cocklebur plant response rating (cocklebur; [1]) | Cocklebur plant response rating (cocklebur; [2]) | Cocklebur plant response rating (cocklebur; [3]) | Plant response rating, Cocklebur (cocklebur; [4]) | Plant response rating, Cocklebur (cocklebur; [5]) | Plant response rating, Cocklebur (cocklebur; [6]) | Cocklebur plant response rating (cocklebur; [7]) | Cocklebur plant response rating (cocklebur; [8]) | Redroot pigweed plant response rating (pigweed; [1]) | Redroot pigweed plant response rating (pigweed; [2]) | Redroot pigweed plant response rating (pigweed; [3]) | Plant response rating, Redroot pigweed (pigweed; [4]) | Plant response rating, Redroot pigweed (pigweed; [5]) | Plant response rating, Redroot pigweed (pigweed; [6]) | Redroot pigweed plant response rating (pigweed; [7]) | Redroot pigweed plant response rating (pigweed; [8])
4: Plant response rating, Blackgrass (blackgrass; [6]) | Plant response rating, Crabgrass (crabgrass; [4]) | Plant response rating, Giant foxtail (giant foxtail; [4])
7: Blackgrass plant response rating (blackgrass; [2]) | Morningglory plant response rating (morningglory; [8])
1: Plant response rating, Blackgrass (blackgrass; [4]) | Giant foxtail plant response rating (giant foxtail; [3])
2: Plant response rating, Blackgrass (blackgrass; [5]) | Crabgrass plant response rating (crabgrass; [8]) | Soybean plant response rating (soybean; [1]) | Soybean plant response rating (soybean; [2]) | Soybean plant response rating (soybean; [8]) | S. Flatsedge plant response rating (smallflower flatsedge; [10]) | Plant response rating, Morningglory (morningglory; [6]) | Ducksalad plant response rating (duck salad; [11])
8: Plant response rating, Giant foxtail (giant foxtail; [5]) | Morningglory plant response rating (morningglory; [2])
3: Crabgrass plant response rating (crabgrass; [2])

From US6737383B1, “Herbicidal oxadiazolidines” (priority 1999, dated 2004)
